Reference: patent EP0326331B1, “Substituted quinolines and cinnolines” (Dow AgroSciences LLC, priority 1988, dated 1989)

Assays:
Format in all cases: in vivo
[1] = system: Puccinia recondita tritici (leaf rust); test: Test 1 greenhouse foliar spray screen, leaf rust on wheat; conditions: disease control rating, foliar spray on wheat, 400 ppm (+++ at 100 ppm)
[2] = system: Cercospora beticola (leaf spot); test: Test 1 greenhouse foliar spray screen, leaf spot on sugar beet; conditions: disease control rating, foliar spray on sugar beet, 400 ppm (+++ at 100 ppm)
corn rootworm = test: Mite/insect screen, CRW; conditions: percent mortality; for mortality at 24 ppm: CRW RATE 24.00 PPM; for mortality at 24 ppm / mortality at 12 ppm: read-out: CRW RESULTS %
Outline: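 Compounds dissolved in 50:50 acetone/alcohol with TOXIMUL R and S emulsifiers (23 and 13 g/L), then diluted in water to the stated test concentrations. Percent mortality of corn rootworm scored after standard exposure periods.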

[3] = system: melon aphids (Aphis gossypii Glover); test: Mite/insect screen, MA; conditions: percent mortality, SAW; for mortality at 400 ppm / mortality at 200 ppm: Aphis gossypii, read-out: MA RESULTS %; for mortality at 400 ppm: SM & MA RATE 400 PPM
Outline: (§1)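 Compounds dissolved in acetone/alcohol (50:50) with TOXIMUL R and S emulsifiers, diluted in water to test concentrations, and sprayed to runoff on both leaf surfaces at 10 psi, then dried 1 h. For armyworm, excised treated leaves were offered to larvae; percent mortality scored after standard exposure periods.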

[4] = system: Septoria tritici (leaf blotch); test: Test 1 greenhouse foliar spray screen, leaf blotch on wheat; conditions: disease control rating, foliar spray on wheat, 400 ppm (+++ at 100 ppm)
[5] = system: Twospotted spider mites (Tetranychus urticae Koch); test: Mite/insect screen, SM; conditions: for mortality at 400 ppm / mortality at 200 ppm: Tetranychus urticae, read-out: SM RESULTS %; for mortality at 400 ppm: SM & MA RATE 400 PPM
Outline: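 Compounds dissolved in 50:50 acetone/alcohol containing sulfonate/nonionic emulsifier blends, then diluted with water to the indicated concentrations. Leaves sprayed on both surfaces to runoff at 10 psi and dried one hour. Percent mortality scored after standard exposure periods.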

[6] = system: Pseudoperonospora cubensis (downy mildew); test: Test 1 greenhouse foliar spray screen, downy mildew on squash; conditions: disease control rating, foliar spray on squash, 400 ppm (+++ at 100 ppm)
[7] = system: Pyricularia oryzae (rice blast); test: whole plant or invertebrate; conditions: for RICE BLAST: disease control rating, foliar spray on rice, 400 ppm (+++ at 100 ppm)
[8] = system: Erysiphe graminis tritici (powdery mildew); test: Test 1 greenhouse foliar spray screen, powdery mildew on wheat; conditions: disease control rating, foliar spray on wheat, 400 ppm (+++ at 100 ppm)
[9] = system: Botrytis cinerea (gray mold); test: Test 1 greenhouse foliar spray screen, gray mold on grape berries; conditions: disease control rating, spray on grape berries, 400 ppm (+++ at 100 ppm)
[10] = system: Venturia inaequalis (apple scab); test: Test 1 greenhouse foliar spray screen, apple scab on apple seedling; conditions: disease control rating, foliar spray on apple seedling, 400 ppm (+++ at 100 ppm)
[11] = system: southern armyworm (Spodopetra eridania Cramer); test: Mite/insect screen, SAW; conditions: percent mortality, SAW; for mortality at 400 ppm / mortality at 200 ppm: Spodoptera eridania, read-out: SAW RESULTS %; for mortality at 400 ppm: SM & MA RATE 400 PPM
Outline: as §1

[12] = percent mortality, SAW, SM & MA RATE 200 PPM
[13] = summary statement in the description

Compound | LEAF RUST [1] | LEAF SPOT [2] | mortality at 24 ppm (corn rootworm) | mortality at 400 ppm [3] | LEAF BLOT [4] | mortality at 400 ppm ([5]; percent mortality, SAW) | DOWN MDEW [6] | RICE BLAST [7] | POWD MDEW [8] | GRAY MOLD [9] | APPL SCAB [10] | mortality at 400 ppm [11] | mortality at 12 ppm (corn rootworm; CRW RATE 12.00 PPM) | mortality at 200 ppm ([3]; SM & MA RATE 200 PPM) | mortality at 200 ppm [5, 12] | mortality at 200 ppm ([11]; SM & MA RATE 200 PPM) | other results
CN(c1ccc(F)cc1)c1ccnc2cc(Cl)ccc12 [Example 106, 7-chloro-N-(4-fluorophenyl)-N-methyl-4-quinolinamine] | + (20-89% control at 400 ppm) | + (20-89% control at 400 ppm) | 0% | 0% | + (20-89% control at 400 ppm) | 0% | + (20-89% control at 400 ppm) | + (20-89% control at 400 ppm) | ++ (90-100% control at 400 ppm) | - (0-19% control at 400 ppm) | - (0-19% control at 400 ppm) | 0% |  |  |  |  | 
FC(F)(F)c1cccc(CCNc2ccnc3cc(Cl)ccc23)c1 [Example 107, 7-chloro-N-[2-[3-(trifluoromethyl)phenyl]ethyl]-4-quinolinamine] | + (20-89% control at 400 ppm) | - (0-19% control at 400 ppm) | 0% | 0% | - (0-19% control at 400 ppm) | 0% | +++ (90-100% control at 100 ppm) | + (20-89% control at 400 ppm) | ++ (90-100% control at 400 ppm) | - (0-19% control at 400 ppm) | - (0-19% control at 400 ppm) | 0% | 0% | 0% | 0% | 0% | 
Fc1cccc2c(NCCc3cccc(Br)c3)ccnc12 [Example 108, N-[2-(3-bromophenyl)ethyl]-8-fluoro-4-quinolinamine] | ++ (90-100% control at 400 ppm) | - (0-19% control at 400 ppm) |  |  | +++ (90-100% control at 100 ppm) |  | + (20-89% control at 400 ppm) | + (20-89% control at 400 ppm) | + (20-89% control at 400 ppm) | - (0-19% control at 400 ppm) | - (0-19% control at 400 ppm) |  | 0% | 0% | 0% | 0% | 
CC(C)(C)c1ccc(CCNc2ccnc3c(F)cccc23)cc1 [Example 111, N-[2-[4-(t-butyl)phenyl]ethyl]--8-fluoro-4-quinolinamine] | +++ (90-100% control at 100 ppm) | - (0-19% control at 400 ppm) | 0% | 0% | +++ (90-100% control at 100 ppm) | 80% | +++ (90-100% control at 100 ppm) | ++ (90-100% control at 400 ppm) | + (20-89% control at 400 ppm) | - (0-19% control at 400 ppm) | - (0-19% control at 400 ppm) | 20% | 0% | 0% | 90% | 20% | activity as miticides [5, 13]: particularly excellent activity; activity against rice blast [7, 13]: particularly excellent activity
Fc1cccc2c(NCCc3ccc(-c4ccccc4)cc3)ccnc12 [Example 113, N-[2-(1,1-biphenyl)-4-yl-ethyl]-8-fluoro-4-quinolinamine] | +++ (90-100% control at 100 ppm) | - (0-19% control at 400 ppm) | 100% | 0% | +++ (90-100% control at 100 ppm) | 0% | +++ (90-100% control at 100 ppm) | +++ (90-100% control at 100 ppm) | + (20-89% control at 400 ppm) | - (0-19% control at 400 ppm) | - (0-19% control at 400 ppm) | 70% | 0% | 0% | 40% | 100% | 
Fc1cccc2c(NCCc3ccccc3)cc(Cl)nc12 [Example 116, 2-chloro-8-fluoro-N-(2-phenylethyl)-4-quinolinamine] | +++ (90-100% control at 100 ppm) | + (20-89% control at 400 ppm) |  |  | - (0-19% control at 400 ppm) |  | +++ (90-100% control at 100 ppm) | + (20-89% control at 400 ppm) | - (0-19% control at 400 ppm) | - (0-19% control at 400 ppm) | + (20-89% control at 400 ppm) |  | 0% | 0% | 0% | 0% | 
O=[N+]([O-])c1ccc(CCNc2ccnc3c(F)cccc23)cc1 [Example 117, 8-fluoro-N-[2-(4-nitrophenyl)ethyl]-4-quinolinamine] | + (20-89% control at 400 ppm) | + (20-89% control at 400 ppm) |  |  | - (0-19% control at 400 ppm) |  | +++ (90-100% control at 100 ppm) | + (20-89% control at 400 ppm) | + (20-89% control at 400 ppm) | - (0-19% control at 400 ppm) | - (0-19% control at 400 ppm) |  | 0% | 0% | 0% | 0% | CRW RESULTS % (corn rootworm; CRW RATE 12.00 PPM): 0%; MA RESULTS % ([3]; SM & MA RATE 200 PPM): 0%; SM RESULTS % [5, 12]: 0%; SAW RESULTS % ([11]; SM & MA RATE 200 PPM): 0%
Fc1cccc2c(NCCc3c(Cl)cccc3Cl)ccnc12 [Example 118, N-[2-(2,6-dichlorophenyl)ethyl]-8-fluoro-4-quinolinamine] | - (0-19% control at 400 ppm) | - (0-19% control at 400 ppm) |  |  | - (0-19% control at 400 ppm) |  | - (0-19% control at 400 ppm) | + (20-89% control at 400 ppm) | - (0-19% control at 400 ppm) | - (0-19% control at 400 ppm) | - (0-19% control at 400 ppm) |  | 0% | 0% | 0% | 0% | 
COc1cc(CCNc2ccnc3c(F)cccc23)cc(OC)c1 [Example 119, N-[2-(3,5-dimethoxyphenyl)ethyl]-8-fluoro-4-quinolinamine] | + (20-89% control at 400 ppm) | - (0-19% control at 400 ppm) |  |  | + (20-89% control at 400 ppm) |  | ++ (90-100% control at 400 ppm) | + (20-89% control at 400 ppm) | + (20-89% control at 400 ppm) | - (0-19% control at 400 ppm) | + (20-89% control at 400 ppm) |  | 0% | 0% | 0% | 0% | 
c1ccc(C2CC2Nc2ccnc3ccccc23)cc1 (stereo not drawn) [Example 120, N-(2-phenylcyclopropyl)-4-quinolinamine] | + (20-89% control at 400 ppm) | +++ (90-100% control at 100 ppm) |  |  | - (0-19% control at 400 ppm) |  | ++ (90-100% control at 400 ppm) | + (20-89% control at 400 ppm) | - (0-19% control at 400 ppm) | - (0-19% control at 400 ppm) | - (0-19% control at 400 ppm) |  | 0% | 0% | 0% | 0% | 
